From patent US20230226040A1, “COMBINATION THERAPY COMPRISING AN FGFR INHIBITOR AND A KRAS INHIBITOR” (Incyte Corporation, priority 2021, published 2023)

Assays:
Test in all cases: 5-day Cell Titer Glo viability and Bliss score
Assay type in all cases: cell-based
[1] = system: MiaPaca2 KRAS G12C resistant clone 28; details: 5-day CTG
Method: (§1) For G12C resistant clone generation, MiaPaca2 parent cells were cultured with increasing concentrations of AMG510 (up to 1μM) over time. The viable cells were re-fed fresh media containing AMG510 weekly. Once the AMG510 resistant cells were growing at normal rates in the presence of 1μM AMG510, they were cloned by limiting dilution. Eight clones were selected for continued passage and further experiments.

[2] = system: MiaPaca2 KRAS G12C resistant clone 11
Method: as §1

[3] = system: MiaPaca2 KRAS G12C resistant clone 23; details: 5-day CTG
Method: as §1

[4] = CLONE 11, G12C i 111 nM + Pemi 1 μM, 5-day CTG

Structure (SMILES): CCN1C(=O)N(c2c(F)c(OC)cc(OC)c2F)Cc2cnc3[nH]c(CN4CCOCC4)cc3c21 [Pemigatinib, 3-(2,6-difluoro-3,5-dimethoxyphenyl)-1-ethyl-8-(morpholin-4-ylmethyl)-1,3,4,7-tetrahydro-2H-pyrrolo[3′,2′:5,6]pyrido[4,3-d]pyrimidin-2-one]
- % viability, Together ([1]; G12C i 111 nM + Pemi 1 μM): 32.4%
- BLISS Score ([1]; G12C i 111 nM + Pemi 1 μM): 21.8
- % viability, Pemi 1 μM ([1]; Pemi alone): 78%
- % viability, Together [2, 4]: 33.8%
- BLISS Score [2, 4]: 24.9
- % viability, Pemi 1 μM ([2]; CLONE 11, Pemi alone, 5-day CTG): 87.6%
- BLISS Score ([2]; MIA-R clone 11, Pemi 12 nM + KRAS G12C i 0.15 nM, 5 day CTG): 2.35
- BLISS Score ([2]; MIA-R clone 11, Pemi 12 nM + KRAS G12C i 0.46 nM, 5 day CTG): 11.42
- BLISS Score ([2]; MIA-R clone 11, Pemi 12 nM + KRAS G12C i 1.37 nM, 5 day CTG): 6.90
- BLISS Score ([2]; MIA-R clone 11, Pemi 12 nM + KRAS G12C i 4.12 nM, 5 day CTG): 11.81
- BLISS Score ([2]; MIA-R clone 11, Pemi 12 nM + KRAS G12C i 12.35 nM, 5 day CTG): 1.32
- BLISS Score ([2]; MIA-R clone 11, Pemi 12 nM + KRAS G12C i 37.04 nM, 5 day CTG): 5.62
- BLISS Score ([2]; MIA-R clone 11, Pemi 12 nM + KRAS G12C i 111.11 nM, 5 day CTG): 11.57
- BLISS Score ([2]; MIA-R clone 11, Pemi 12 nM + KRAS G12C i 333.33 nM, 5 day CTG): −7.24
- BLISS Score ([2]; MIA-R clone 11, Pemi 12 nM + KRAS G12C i 1000.00 nM, 5 day CTG): 1.05
- BLISS Score ([2]; MIA-R clone 11, Pemi 37 nM + KRAS G12C i 0.15 nM, 5 day CTG): 14.47
- BLISS Score ([2]; MIA-R clone 11, Pemi 37 nM + KRAS G12C i 0.46 nM, 5 day CTG): 6.20
- BLISS Score ([2]; MIA-R clone 11, Pemi 37 nM + KRAS G12C i 1.37 nM, 5 day CTG): 6.05
- BLISS Score ([2]; MIA-R clone 11, Pemi 37 nM + KRAS G12C i 4.12 nM, 5 day CTG): 20.01
- BLISS Score ([2]; MIA-R clone 11, Pemi 37 nM + KRAS G12C i 12.35 nM, 5 day CTG): 15.07
- BLISS Score ([2]; MIA-R clone 11, Pemi 37 nM + KRAS G12C i 37.04 nM, 5 day CTG): 10.60
- BLISS Score ([2]; MIA-R clone 11, Pemi 37 nM + KRAS G12C i 111.11 nM, 5 day CTG): 8.39
- BLISS Score ([2]; MIA-R clone 11, Pemi 37 nM + KRAS G12C i 333.33 nM, 5 day CTG): −5.78
- BLISS Score ([2]; MIA-R clone 11, Pemi 37 nM + KRAS G12C i 1000.00 nM, 5 day CTG): 4.52
- BLISS Score ([2]; MIA-R clone 11, Pemi 111 nM + KRAS G12C i 0.15 nM, 5 day CTG): −3.03
- BLISS Score ([2]; MIA-R clone 11, Pemi 111 nM + KRAS G12C i 0.46 nM, 5 day CTG): 6.04
- BLISS Score ([2]; MIA-R clone 11, Pemi 111 nM + KRAS G12C i 1.37 nM, 5 day CTG): 8.76
- BLISS Score ([2]; MIA-R clone 11, Pemi 111 nM + KRAS G12C i 4.12 nM, 5 day CTG): 13.15
- BLISS Score ([2]; MIA-R clone 11, Pemi 111 nM + KRAS G12C i 12.35 nM, 5 day CTG): 15.70
- BLISS Score ([2]; MIA-R clone 11, Pemi 111 nM + KRAS G12C i 37.04 nM, 5 day CTG): 13.58
- BLISS Score ([2]; MIA-R clone 11, Pemi 111 nM + KRAS G12C i 111.11 nM, 5 day CTG): 9.80
- BLISS Score ([2]; MIA-R clone 11, Pemi 111 nM + KRAS G12C i 333.33 nM, 5 day CTG): 6.86
- BLISS Score ([2]; MIA-R clone 11, Pemi 111 nM + KRAS G12C i 1000.00 nM, 5 day CTG): 3.15
- BLISS Score ([2]; MIA-R clone 11, Pemi 333 nM + KRAS G12C i 0.15 nM, 5 day CTG): 6.68
- BLISS Score ([2]; MIA-R clone 11, Pemi 333 nM + KRAS G12C i 0.46 nM, 5 day CTG): 20.56
- BLISS Score ([2]; MIA-R clone 11, Pemi 333 nM + KRAS G12C i 1.37 nM, 5 day CTG): 17.83
- BLISS Score ([2]; MIA-R clone 11, Pemi 333 nM + KRAS G12C i 4.12 nM, 5 day CTG): 34.95
- BLISS Score ([2]; MIA-R clone 11, Pemi 333 nM + KRAS G12C i 12.35 nM, 5 day CTG): 20.46
- BLISS Score ([2]; MIA-R clone 11, Pemi 333 nM + KRAS G12C i 37.04 nM, 5 day CTG): 24.19
- BLISS Score ([2]; MIA-R clone 11, Pemi 333 nM + KRAS G12C i 111.11 nM, 5 day CTG): 25.28
- BLISS Score ([2]; MIA-R clone 11, Pemi 333 nM + KRAS G12C i 333.33 nM, 5 day CTG): 14.69
- BLISS Score ([2]; MIA-R clone 11, Pemi 333 nM + KRAS G12C i 1000.00 nM, 5 day CTG): 13.90
- BLISS Score ([2]; MIA-R clone 11, Pemi 1000 nM + KRAS G12C i 0.15 nM, 5 day CTG): −0.21
- BLISS Score ([2]; MIA-R clone 11, Pemi 1000 nM + KRAS G12C i 0.46 nM, 5 day CTG): 11.01
- BLISS Score ([2]; MIA-R clone 11, Pemi 1000 nM + KRAS G12C i 1.37 nM, 5 day CTG): 23.94
- BLISS Score ([2]; MIA-R clone 11, Pemi 1000 nM + KRAS G12C i 4.12 nM, 5 day CTG): 31.01
- BLISS Score ([2]; MIA-R clone 11, Pemi 1000 nM + KRAS G12C i 12.35 nM, 5 day CTG): 29.47
- BLISS Score ([2]; MIA-R clone 11, Pemi 1000 nM + KRAS G12C i 37.04 nM, 5 day CTG): 21.52
- BLISS Score ([2]; MIA-R clone 11, Pemi 1000 nM + KRAS G12C i 111.11 nM, 5 day CTG): 24.91
- BLISS Score ([2]; MIA-R clone 11, Pemi 1000 nM + KRAS G12C i 333.33 nM, 5 day CTG): 20.06
- BLISS Score ([2]; MIA-R clone 11, Pemi 1000 nM + KRAS G12C i 1000.00 nM, 5 day CTG): 21.43
- % viability, Together ([3]; G12C i 111 nM + Pemi 1 μM): 74.9%
- BLISS Score ([3]; G12C i 111 nM + Pemi 1 μM): 16.1
- % viability, Pemi 1 μM ([3]; Pemi alone): 100.1%
